Measurements taken from patent US20120134974A1, “METHODS FOR REMOVING PLASMA” (BIOVEC TRANSFUSION, LLC, priority 2010, published 2012).

Columns and labels:
[1] = tested on: platelets; test: thromboelastography (TEG) of platelet concentrate; assay type: cell-based; details: 2.4 mg Argatroban in 350 ml of platelets; straight line on the thromboelastogram
Description: In one experiment, platelet concentrates obtained by the buffy coat method were used for the study. Integrilin (Eptifibatide), a GPIIb/IIIa inhibitor, and Argabotran, a synthetic thrombin inhibitor, were added to platelet units at three times the therapeutic concentrations (i.e., 48 micrograms of Integrilin and 2.4 mg of Argatroban in 350 ml of platelets). Removal of the inhibitors was initiated by diafiltration. 15 ml of the platelet concentrate was diafiltered against 60 ml of a solution containing 20% fresh frozen plasma in a commercially used platelet storage solution (T-Sol). The samples were stored overnight and platelet functionality was measured on Day 2, by Thromboelastography (TEG) and using standard agonists such as TRAP and collagen.
In another experiment, Integrilin and Argabotran were added to platelet units at three times the therapeutic loading concentrations (i.e., 48 micrograms for Integrilin and 2.4 mg for Argatroban in 350 ml of platelets). Prior to the addition of the inhibitors, baseline data of platelet functionality was obtained. These baseline data included thromboelastography, which assesses overall platelet function and clot strength, as well as the TRAP test and the collagen test, which are additional markers of platelet functionality. […]

[2] = biological target: factor Xa (Homo sapiens, UniProt P00742); details: cited from earlier work
Sequence of factor Xa (P00742 235-488 limits assumed): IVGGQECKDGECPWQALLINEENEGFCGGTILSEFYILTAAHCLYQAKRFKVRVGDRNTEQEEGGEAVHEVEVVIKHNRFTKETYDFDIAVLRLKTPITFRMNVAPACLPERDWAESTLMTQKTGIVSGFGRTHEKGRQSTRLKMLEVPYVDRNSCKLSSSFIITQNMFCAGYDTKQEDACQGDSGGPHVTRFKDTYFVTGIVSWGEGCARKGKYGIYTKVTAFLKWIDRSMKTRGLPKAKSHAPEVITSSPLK
Sequence of factor Xa (P00742 41-179 partner limits assumed): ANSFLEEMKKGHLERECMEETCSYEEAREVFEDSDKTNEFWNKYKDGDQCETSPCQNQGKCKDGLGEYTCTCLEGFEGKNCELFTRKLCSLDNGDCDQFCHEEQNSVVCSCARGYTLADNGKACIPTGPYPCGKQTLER

[3] = tested on: PT and αPTT; details: more sensitive to the αPTT; cited from earlier work

Question: For `CC1CNc2c(cccc2S(=O)(=O)N[C@@H](CCCNC(=N)N)C(=O)N2CC[C@@H](C)C[C@@H]2C(=O)O)C1` (stereo partly shown) [Argatroban], which “effect on activation of platelets on the thromboelastogram” value [1] is on record?
Answer: completely blocks the activation of platelets

Question: With `COc1ccc2ccc(S(=O)(=O)N(C)[C@H]3CCN(Cc4csc(C(=N)N)c4)C3=O)cc2c1` [RPR-120844] as the molecule, how does the “mode of factor Xa inhibition” value [2] read?
Answer: fast binding, reversible and competitive inhibitor

Question: And the “effect on PT and αPTT” value [3]?
Answer: prolongs the PT and αPTT in a concentration-dependent manner

Question: Which “mode of factor Xa inhibition” value [2] does the source give for `CC(=N)N1CC[C@H](Oc2ccc([C@H](Cc3ccc4ccc(C(=N)N)cc4c3)C(=O)O)cc2)C1` [DX-9065a] here?
Answer: competitive manner
